Experimental data: patent US10822376B2, “Biologically active peptides” (Baxalta Incorporated, priority 2008, dated 2020)
In brackets after ≈: the same amount, converted by molar mass. Where two headings read alike, the source gives them in different places. Where a SMILES comes first, the peptide text is derived from it. Where no end group is shown, it is not given here. [ ]: non-standard residue; d: D form.

Key:
[1] = Acute toxicology in mice; format: in vivo, mouse; details: C57BL/6, mouse, in vivo, 60 minutes following administration, read-out: Max dose within toxicity category: No detected toxicity
Experimental: Toxicology studies involved monitoring of attitude changes due to toxic effects immediately after application and twice daily; monitoring of body weight; histopathology of brain, heart, kidney, liver, lung. Experiments were performed in C57131/6 mice.
C57BI/6 mice weighing 18-20 g were administered with compounds in a suitable vehicle i.v. in the tail vein or i.p. or s.c at 10 ml/kg. Quantities of the compounds administered were in the range of 0.075 to 125 mg/kg (i.v.), 15-125 mg/kg (i.p.) and 125 mg/kg (s.c.). There were four mice per group. Attitude changes due to toxic effects were monitored immediately after administration of the compound and for 60 minutes thereafter. Body weight was monitored for five days after administration. At day 5 after administration, mice were culled and autopsy performed. Brain, heart, kidney, liver, lung and spleen were biopsied.
In the above table, the maximum dose tested giving rise to no detected toxicity, some toxicity or severe toxicity over the period of 60 minutes following administration is reported. “No detected toxicity” indicates no acute toxic observations.

[2] = physchem; details: for solubility kinetic: pH 7.4
[3] = tested on: Factor VII/VIIa deficient human plasma; assay: DDPTGA (reagent B) in FVII depleted plasma; details: compounds at 50 μM and 80, 90 or 100 μM
Experimental: (§1) The Defined Dual-Pathway Thrombin Generation Assay is performed as described below, using a commercial test kit (Technothrombin TGA, Technoclone GmbH, Vienna, Austria). […] USA) are incubated four minutes at 37° C. Preferably, Reagent C high is used. Thrombin generation is started by the addition of 40 μl of one of several types of human plasma (37° C.). […] By deviating the original fluorescence data the amount of generated thrombin is calculated from a standard curve constructed using a concentration range of thrombin.
(§2) The in vitro thrombin generation assay based on the cleavage of Z-GGR-AMC to release the fluorophore AMC, described in the specific description, i.e. the Defined Dual-Pathway Thrombin Generation Assay was used to characterise the effect of the compounds in several depleted human plasmas. […] 10 μl peptide dilution, 40 μl TGA substrate and 40 μl plasma were used as described in the specific description.
(§3) The plasmas used in the experiments were fresh frozen and were deficient in Factor V, Factor VII/VIIa, Factor VIII, Factor X or Factor XI (George King Bio-Medical, Inc.). Residual coagulation factor levels of deficient plasmas were specified as less than 1%.
(§4) For each depleted plasma used in the experiments, compounds were tested at two concentrations, namely 50 μM and 80, 90 or 100 μM. A negative control was used, in which no test compound was included.

[4] = tested on: Factor X deficient human plasma; assay: DDPTGA (reagent B) in FX depleted plasma; details: compounds at 50 μM and 80, 90 or 100 μM
Experimental: as §1, §2, §3, §4

[5] = tested on: FVIII deficient plasma; assay: Defined Dual-Pathway Thrombin Generation Assay (DDPTGA, reagent C high), FVIII deficient plasma; format: biochemical, human; details: for Peak IIa FVIII EU / Peak Time FVIII EU: FVIII deficient plasma
[6] = tested on: FVIII inhibited plasma; assay: Defined Dual-Pathway Thrombin Generation Assay (DDPTGA, reagent C high), FVIII inhibited plasma; format: biochemical, human; details: for Peak IIa FEIBA EU / Peak IIa FVIIa EU / Peak Time FEIBA EU / Peak Time FVIIa EU: FVIII inhibited plasma; for Activity in the Defined Dual-Pathway Thrombin Generation Assay: summary, FVIII inhibited or deficient plasma
[7] = tested on: Factor VIII deficient human plasma; assay: DDPTGA (reagent B) in FVIII depleted plasma; format: biochemical; details: compounds at 50 μM and 80, 90 or 100 μM; further: key: '+' means stimulates; '−' means does not stimulate
Source text: Preferably, Reagent C high is used.

[8] = tested on: Factor V deficient human plasma; assay: DDPTGA (reagent B) in FV depleted plasma; details: compounds at 50 μM and 80, 90 or 100 μM
Experimental: as §1, §2, §3, §4

[9] = tested on: Factor XI deficient human plasma; assay: DDPTGA (reagent B) in FXI depleted plasma; details: compounds at 50 μM and 80, 90 or 100 μM
Experimental: as §1, §2, §3, §4

[10] = tested on: human FVIII inhibited plasma; assay: Defined Intrinsic Thrombin Generation Assay (DITGA, triggered by FXIa and phospholipids); format: biochemical; details: for Activity in the Defined Intrinsic Thrombin Generation Assay: summary
[11] = in vitro; details: human, plasma
Experimental: Half-life of compounds in human or mouse plasma, or percentage of compound remaining after an incubation in human or mouse plasma, is determined as follows. In the experimental procedure, test compound concentrations are 5 μM, prepared from test compound stock solutions of 10 mM in DMSO. Propantheline is used as a standard. […] All of the samples are incubated in a water bath at 37° C. […] After a chosen duration of incubation (generally at t=60 min) each sample is mixed with a further 500 μl acetonitrile. The samples are mixed on a vortex mixer for 30 s and placed on ice for 10 min and collected for centrifugation. Samples are centrifuged at 20 000 g for 10 min at 4° C. 500 μl supernatant is transferred into a new 1.5 ml Eppendorf tube and an equal volume of acetonitrile is added. The sample is mixed again for 30 s using a vortex mixer. After a second centrifugation step (20 000 g, 10 min, 4° C.) 250 μl of the supernatant is transferred into HPLC glass vials for HPLC-MS analysis. Conditions for performing HPLC are as follows: Injection-volume is set to 20 μl. Temperature is set to 25° C. A linear gradient from 95:5 to 5:95 water:acetonitrile both containing 0:05% trifluoroacetic acid (TFA) (v/v) is applied at a flow rate of 0.3 ml/min for 10 min. The PDA-detector is scanning from 210-400 nm.

[12] = pH 7.4, Solubility in PBS pH 7.4

CC[C@@H](C)[C@@H](NC(=O)[C@@H](CS)NC(C)=O)C(=O)N[C@H](CCSC)C(=O)N[C@H](Cc1ccccc1)C(=O)N[C@H](Cc1c[nH]c2ccccc12)C(=O)N[C@H](Cc1ccc(O)cc1)C(=O)N[C@H](CC(=O)O)C(=O)N[C@H](CCC(=O)O)C(=O)N[C@H](Cc1ccc(O)cc1)C(=O)N[C@H](CCC(=O)O)C(N)=O [Peptide B03, Ac-cimfwydeye-NH2] (Ac-[dC][dI][dM][dF][dW][dY][dD][dE][dY][dE]-NH2)
NOAEL at 1 h ([1]; ip): 15 mg/kg
NOAEL at 1 h ([1]; iv): 1.5 mg/kg
solubility kinetic [2]: 114 µM (≈ 164 µg/mL)
solubility ([2]; pH 7.4, Aqueous solubility): 114 µM (≈ 164 µg/mL)
Stimulation of thrombin generation [3]: +
Stimulation of thrombin generation [4]: +
Effect on both peak time and peak IIa of thrombin generation ([5]; DDPTGA, comment on Table 10): positively affected
Peak IIa FVIII EU ([5]; peptide 40 μM): 4.8 mU/ml
Peak Time FVIII EU ([5]; peptide 40 μM): 8.7 mU/ml
Peak IIa FVIII EU ([5]; peptide 100 μM): 5.3 mU/ml
Peak Time FVIII EU ([5]; peptide 100 μM): 7.5 mU/ml
Peak IIa FEIBA EU ([6]; peptide 40 μM): 7.2 mU/ml
Peak IIa FVIIa EU ([6]; peptide 40 μM): 0.2 nM
Peak Time FEIBA EU ([6]; peptide 40 μM): BLS (BLS = below lowest standard.)
Peak Time FVIIa EU ([6]; peptide 40 μM): BLS (BLS = below lowest standard.)
Peak IIa FEIBA EU ([6]; peptide 100 μM): 12.3 mU/ml
Peak IIa FVIIa EU ([6]; peptide 100 μM): 0.6 nM
Peak Time FEIBA EU ([6]; peptide 100 μM): BLS (BLS = below lowest standard.)
Peak Time FVIIa EU ([6]; peptide 100 μM): BLS (BLS = below lowest standard.)
Activity in the Defined Dual-Pathway Thrombin Generation Assay [6]: possess activity
Stimulation of thrombin generation [7]: +
Stimulation of thrombin generation [8]: −
Stimulation of thrombin generation [9]: +
Thrombin peak time given as FEIBA equivalent activity ([10]; peptide 6.25 μM): 454 mU/ml
Thrombin peak time given as FEIBA equivalent activity ([10]; peptide 12.5 μM): 602 mU/ml
Thrombin peak time given as FEIBA equivalent activity ([10]; peptide 25 μM): 738 mU/ml
Thrombin peak time given as FEIBA equivalent activity ([10]; peptide 50 μM): 1030 mU/ml
Thrombin peak time given as FEIBA equivalent activity ([10]; peptide 100 μM): 1394 mU/ml
Activity in the Defined Intrinsic Thrombin Generation Assay [10]: possess activity

Ac-WDLYFEIVWE [Peptide A06]
NOAEL at 1 h ([1]; ip): 25 mg/kg
NOAEL at 1 h ([1]; iv): 1 mg/kg
solubility ([2]; pH 7.4, Aqueous solubility): 164 µM
solubility ([2]; pH 7.4, Solubility in PBS): 164 µM
Stimulation of thrombin generation [3]: +
Stimulation of thrombin generation [4]: +
remaining at 0.5 h, 5 μM [11]: 98%
Peak IIa FVIII EU ([5]; peptide 50 μM): BLS (BLS = below lowest standard.)
Peak Time FVIII EU ([5]; peptide 50 μM): BLS (BLS = below lowest standard.)
Peak IIa FVIII EU ([5]; peptide 100 μM): BLS (BLS = below lowest standard.)
Peak Time FVIII EU ([5]; peptide 100 μM): BLS (BLS = below lowest standard.)
Peak IIa FEIBA EU ([6]; peptide 50 μM): BLS (BLS = below lowest standard.)
Peak IIa FVIIa EU ([6]; peptide 50 μM): BLS (BLS = below lowest standard.)
Peak Time FEIBA EU ([6]; peptide 50 μM): BLS (BLS = below lowest standard.)
Peak Time FVIIa EU ([6]; peptide 50 μM): BLS (BLS = below lowest standard.)
Peak IIa FEIBA EU ([6]; peptide 100 μM): BLS (BLS = below lowest standard.)
Peak IIa FVIIa EU ([6]; peptide 100 μM): BLS (BLS = below lowest standard.)
Peak Time FEIBA EU ([6]; peptide 100 μM): BLS (BLS = below lowest standard.)
Peak Time FVIIa EU ([6]; peptide 100 μM): 0.4 nM
Activity in the Defined Dual-Pathway Thrombin Generation Assay [6]: possess activity
Stimulation of thrombin generation [7]: +
Stimulation of thrombin generation [8]: +
Stimulation of thrombin generation [9]: +
Thrombin peak time given as FEIBA equivalent activity ([10]; peptide 6.25 μM): 571 mU/ml
Thrombin peak time given as FEIBA equivalent activity ([10]; peptide 12.5 μM): 750 mU/ml
Thrombin peak time given as FEIBA equivalent activity ([10]; peptide 25 μM): 843 mU/ml
Thrombin peak time given as FEIBA equivalent activity ([10]; peptide 50 μM): 919 mU/ml
Thrombin peak time given as FEIBA equivalent activity ([10]; peptide 100 μM): 879 mU/ml
Activity in the Defined Intrinsic Thrombin Generation Assay [10]: possess activity

H-ERMEFDVWDLYFEIVW-NH2 [Peptide A09]
NOAEL at 1 h ([1]; iv): 15 mg/kg
solubility kinetic [2]: 63 µM
solubility ([2]; pH 7.4, Aqueous solubility): 63 µM
solubility [2, 12]: ≥ 25 µM
Stimulation of thrombin generation [3]: +
Stimulation of thrombin generation [4]: +
remaining at 0.5 h, 5 μM [11]: 67%
Peak IIa FVIII EU ([5]; peptide 25 μM): BLS (BLS = below lowest standard.)
Peak Time FVIII EU ([5]; peptide 25 μM): 15.6 mU/ml
Peak IIa FVIII EU ([5]; peptide 50 μM): BLS (BLS = below lowest standard.)
Peak Time FVIII EU ([5]; peptide 50 μM): 27.2 mU/ml
Peak IIa FEIBA EU ([6]; peptide 25 μM): BLS (BLS = below lowest standard.)
Peak IIa FVIIa EU ([6]; peptide 25 μM): BLS (BLS = below lowest standard.)
Peak Time FEIBA EU ([6]; peptide 25 μM): 7.9 mU/ml
Peak Time FVIIa EU ([6]; peptide 25 μM): 0.2 nM
Peak IIa FEIBA EU ([6]; peptide 50 μM): 8.6 mU/ml
Peak IIa FVIIa EU ([6]; peptide 50 μM): BLS (BLS = below lowest standard.)
Peak Time FEIBA EU ([6]; peptide 50 μM): BLS (BLS = below lowest standard.)
Peak Time FVIIa EU ([6]; peptide 50 μM): BLS (BLS = below lowest standard.)
Activity in the Defined Dual-Pathway Thrombin Generation Assay [6]: possess activity
Stimulation of thrombin generation [7]: +
Stimulation of thrombin generation [8]: −
Stimulation of thrombin generation [9]: +
Thrombin peak time given as FEIBA equivalent activity ([10]; peptide 6.25 μM): 600 mU/ml
Thrombin peak time given as FEIBA equivalent activity ([10]; peptide 12.5 μM): 742 mU/ml
Thrombin peak time given as FEIBA equivalent activity ([10]; peptide 25 μM): 896 mU/ml
Thrombin peak time given as FEIBA equivalent activity ([10]; peptide 50 μM): 1170 mU/ml
Thrombin peak time given as FEIBA equivalent activity ([10]; peptide 100 μM): 1365 mU/ml
Activity in the Defined Intrinsic Thrombin Generation Assay [10]: possess activity

Ac-PMKFDVWDLYFEIVW-NH2 [Peptide A02]
NOAEL at 1 h ([1]; ip): 25 mg/kg
NOAEL at 1 h ([1]; iv): 25 mg/kg
solubility kinetic [2]: 35 µM
solubility ([2]; pH 7.4, Aqueous solubility): 35 µM
solubility [2, 12]: ≥ 25 µM
Stimulation of thrombin generation [3]: +
Stimulation of thrombin generation [4]: +
remaining at 0.5 h, 5 μM [11]: 84%
Peak IIa FVIII EU ([5]; peptide 50 μM): BLS (BLS = below lowest standard.)
Peak Time FVIII EU ([5]; peptide 50 μM): BLS (BLS = below lowest standard.)
Peak IIa FEIBA EU ([6]; peptide 50 μM): BLS (BLS = below lowest standard.)
Peak IIa FVIIa EU ([6]; peptide 50 μM): BLS (BLS = below lowest standard.)
Peak Time FEIBA EU ([6]; peptide 50 μM): 10.2 mU/ml
Peak Time FVIIa EU ([6]; peptide 50 μM): 0.4 nM
Activity in the Defined Dual-Pathway Thrombin Generation Assay [6]: possess activity
Stimulation of thrombin generation [7]: +
Stimulation of thrombin generation [8]: −
Stimulation of thrombin generation [9]: +
Thrombin peak time given as FEIBA equivalent activity ([10]; peptide 6.25 μM): 577 mU/ml
Thrombin peak time given as FEIBA equivalent activity ([10]; peptide 12.5 μM): 674 mU/ml
Thrombin peak time given as FEIBA equivalent activity ([10]; peptide 25 μM): 780 mU/ml
Thrombin peak time given as FEIBA equivalent activity ([10]; peptide 50 μM): 1018 mU/ml
Thrombin peak time given as FEIBA equivalent activity ([10]; peptide 100 μM): 1305 mU/ml
Activity in the Defined Intrinsic Thrombin Generation Assay [10]: possess activity

Ac-WDLYFEIVW-NH2 [Peptide A05]
NOAEL at 1 h ([1]; ip): 15 mg/kg
solubility kinetic [2]: 6 µM
solubility ([2]; pH 7.4, Aqueous solubility): 6 µM
Stimulation of thrombin generation [3]: +
Stimulation of thrombin generation [4]: +
remaining at 0.5 h, 5 μM [11]: 93%
Peak IIa FVIII EU ([5]; peptide 50 μM): BLS (BLS = below lowest standard.)
Peak Time FVIII EU ([5]; peptide 50 μM): BLS (BLS = below lowest standard.)
Peak IIa FVIII EU ([5]; peptide 100 μM): BLS (BLS = below lowest standard.)
Peak Time FVIII EU ([5]; peptide 100 μM): BLS (BLS = below lowest standard.)
Peak IIa FEIBA EU ([6]; peptide 50 μM): BLS (BLS = below lowest standard.)
Peak IIa FVIIa EU ([6]; peptide 50 μM): BLS (BLS = below lowest standard.)
Peak Time FEIBA EU ([6]; peptide 50 μM): BLS (BLS = below lowest standard.)
Peak Time FVIIa EU ([6]; peptide 50 μM): BLS (BLS = below lowest standard.)
Peak IIa FEIBA EU ([6]; peptide 100 μM): BLS (BLS = below lowest standard.)
Peak IIa FVIIa EU ([6]; peptide 100 μM): BLS (BLS = below lowest standard.)
Peak Time FEIBA EU ([6]; peptide 100 μM): BLS (BLS = below lowest standard.)
Peak Time FVIIa EU ([6]; peptide 100 μM): BLS (BLS = below lowest standard.)
Stimulation of thrombin generation [7]: +
Stimulation of thrombin generation [8]: −
Stimulation of thrombin generation [9]: +
Thrombin peak time given as FEIBA equivalent activity ([10]; peptide 6.25 μM): 390 mU/ml
Thrombin peak time given as FEIBA equivalent activity ([10]; peptide 12.5 μM): 487 mU/ml
Thrombin peak time given as FEIBA equivalent activity ([10]; peptide 25 μM): 562 mU/ml
Thrombin peak time given as FEIBA equivalent activity ([10]; peptide 50 μM): 631 mU/ml
Thrombin peak time given as FEIBA equivalent activity ([10]; peptide 100 μM): 816 mU/ml
Activity in the Defined Intrinsic Thrombin Generation Assay [10]: possess activity
